pIC50: −log10 of the molar value. Where two headings read alike, the source gives them in different places. Values belong to the compound of their own block, whether it stands above or below them.
Columns and labels:
Type in all cases: cell-based
Purinoreceptor P2Y1 = biological target: T1, Purinoreceptor P2Y1 (Homo sapiens, UniProt P47900); test: Ca2+ assay (FLIPR) for the GPCR purinoreceptor P2Y1, agonist and antagonist mode; conditions: P2Y1 receptor
T1 construct: host or cells: Ca2+ optimized hematopoietic cell lines (rat)
Description: Biological and Pharmacological Methods 1. Ca^2+ Assays for the GPCRs Motilin Receptor, Prostaglandin F (FP) Receptor, 5-hydroxytryptamine 2B (5-HT2B) Receptor, and Purinoreceptor P2Y1
Assays were performed using on a FLIPR^TETRA fluorometric imaging plate reader (Molecular Devices) with ScreenWorks Version 2 (Molecular Devices) as device operating and data analysis software.
Dose dependent agonist and antagonist activities were determined. Percentage activation and percentage inhibition values were determined.
Percentage activation was determined upon initial addition of the sample compounds followed by 10 minutes incubation at 25° C. Following compound incubation, reference agonists were added at EC80 to determine percentage inhibition.
Reference agonists were purchased from reputable commercial vendors and prepared according to each ligand's specifications. All handling of ligands were done to ensure proper control throughout the experiments.
Example compounds were weighed on a Microbalance (Mettler MX5) and dissolved in 100% DMSO to a final concentration of 2.5 mM and subsequently diluted into the assay buffer.
The Assay buffer was a supplemented HBSS (Hank's Balanced Salt Solution). HBSS was supplemented with 20 mM HEPES (4-(2-hydroxyethyl)-piperazin-1-ethansulfonic acid) and 2.5 mM Probenecid (Sigma P8761).
GPCR assays were performed using Ca^2+ optimized hematopoietic cell lines (rat) with cultures never exceeding 90% confluency. Cells were harvested and seeded (from cultures at less than 90% confluency) at 50000 cells/well for a 96-well plate (12500 cells/well for 384). After seeding, the assay plates were incubated for forty-five (45) minutes at room temperature. After room temperature incubation, the assay plates were incubated at 37° C. 5% CO2 for 24 hours prior to assaying.
All GPCR assays were performed using Fluo-8 Ca^2+ dye. Ca^2+ dye was prepared at 1× dye concentration in GPCR assay buffer. After 24 hours of incubation, cells were washed with GPCR assay buffer, and then Ca^2+-dye (100 μL/well) was added.
The plates were incubated for 90 minutes at 30° C. 5% CO2 prior to FLIPR assay.
Compound plates were prepared to add 50 μL/well during the agonist assay mode. During the FLIPR assay, 50 μL/well from the compound plate was diluted 3-fold into the existing 100 μL/well from the dye loading step. Therefore all compounds were prepared as 3× the final concentration desired in the assay.
After completion of the first single addition assay run, assay plate was removed from the FLIPR Tetra and placed at 25° C. for seven (7) minutes before antagonist assay.
Using the EC80 values determined during the agonist assay, all pre-incubated sample compound and reference antagonist (if applicable) wells were stimulated at the EC80 of the reference agonist. As reference ligands for the first three assays their obvious natural ligands motilin, prostaglandin F2α, and serotonin (5-HT, 5-Hydroxytryptamine) were used; and for the P2Y1 assay 2MeSATP (2-methyl-thio-adeno-sine 5′-triphosphate, i.e. (2R,3S,4R)-5-(6-amino-2-methylsulfanyl-purin-9-yl)-3,4-dihydroxy-tetrahydrofuran-2-yl]methyl (hydroxy-phosphonooxy-phosphoryl)hydrogen phosphate) was applied.
After the addition of the reference agonist fluorescence was monitored for 180 sec using FLIPR Tetra.
Data Analysis and Results:
From the FLIPR data, with negative control correction enabled, the maximum statistic for each well was exported and percentage activation relative to Emax control was calculated.

[1] = tested on: Wnt/Beta-Catenin pathway (LEF-TCF-bla SW480 cells); test: Wnt/Beta-Catenin (APC-/-) LEF-TCF-bla SW480 inhibitor screen, constitutively activated; conditions: for pIC50: read-out: TCF/LEF receptor gene activity IC50; for inhibition at 10 µM: read-out: TCF/LEF receptor gene activity [% inhibition at 10 μM]
Description: (§1) 3. Assays for the Wnt-Pathway
(§2) For determining the activity of the test compounds on the Wnt-pathway each substances war subjected to two distinct assays: The first (Wnt/Beta-Catenin) assay screened for inhibitors of the Wnt-pathway while the second (MAPK/MEK/B-raf) was conducted in order to confirm that the test compounds modulate the β-catenin-dependent, canonical Wnt pathway and are not acting via a possibly competing β-catenin-independent, noncanonical Wnt messaging system.
(§3) Both assays were performed and analyzed with a Tecan Safire^2 fluorescence plate reader.
Wnt/Beta-Catenin (APC−/−)—LEF-TCF-bla SW480—Inhibitor Screen, Constitutively Activated
(§4) LEF-TCF-bla SW480 cells are thawed and resuspended in Assay Media (OPTI-MEM, 0.5% dialyzed FBS, 0.1 mM NEAA, 1 mM Sodium Pyruvate, 100 U/mL/100 μg/mL Pen/Strep) to a concentration of 312,500 cells/mL. 4 μL of a 10× serial dilution of ICG-001 (control inhibitor starting concentration, 10,000 nM) or compounds are added to appropriate wells of a TC-Treated assay plate. 32 μL of cell suspension (10,000 cells) is added to the wells. 4 μL of Assay Media is added to all wells to bring the final assay volume to 40 μL. The plate is incubated for 16-24 hours at 37° C./5% CO2 in a humidified incubator. 8 μL of 1 μM Substrate Loading Solution is added to each well and the plate is incubated for 2 hours at room temperature.

[2] = tested on: MAPK/MEK/B-raf pathway (AP1-bla A375 cells); test: MAPK/MEK/B-raf AP1-bla A375 inhibitor screen, constitutively activated (negative control of the Wnt assay)
Description: as §1, §2, §3
MAPK/MEK/B-raf—APl-bla A375—Inhibitor Screen, Constitutively Activated
as §4, with “AP1-bla A375” for “LEF-TCF-bla SW480”, “Raf1 Kinase Inhibitor” for “ICG-001”

[3] = Homo sapiens, A-375, read-out: AP receptor gene activity IC50

T1 sequence (P47900 whole entry): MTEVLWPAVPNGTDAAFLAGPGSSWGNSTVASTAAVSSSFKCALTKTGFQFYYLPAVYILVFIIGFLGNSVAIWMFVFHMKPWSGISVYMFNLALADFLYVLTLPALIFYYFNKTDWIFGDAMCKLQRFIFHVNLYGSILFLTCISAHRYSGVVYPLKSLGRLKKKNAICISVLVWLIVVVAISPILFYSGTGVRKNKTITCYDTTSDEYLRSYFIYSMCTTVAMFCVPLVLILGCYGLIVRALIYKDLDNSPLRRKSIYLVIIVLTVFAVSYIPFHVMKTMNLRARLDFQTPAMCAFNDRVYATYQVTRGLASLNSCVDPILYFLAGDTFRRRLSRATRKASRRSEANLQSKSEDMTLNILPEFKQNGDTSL

- inhibition at 10 µM (Purinoreceptor P2Y1): 19%
SMILES: CC(=O)N[C@@H]1C[C@H]2CSc3cccc(c3)C(=O)N(C)[C@H](C(=O)NCc3ccc4ccccc4c3)CCC(=O)N(C)CC(=O)N2C1 [Ex. 320, (4S,6R,15S)-6-(acetylamino)-11,16-dimethyl-N-(2-naphthylmethyl)-9,12,17-trioxo-2-thia-8,11,16-triazatricyclo[16.3.1.0^4,8]docosa-1(22),18,20-triene-15-carboxamide]

- pIC50 [1]: 5.96
- pIC50 ([2]; read-out: AP receptor gene activity IC50): < 4.30
SMILES: CN1CC(=O)N2C[C@@H](NC(=O)Cc3ccc4ccccc4c3)C[C@H]2COc2ccc(F)cc2C(=O)N(C)[C@H](C(=O)NCc2cccc3ccccc23)CCC1=O [Ex. 501, (2S,11S,19aS)-15-fluoro-7,12-dimethyl-2-{[2-(2-naphthyl)acetyl]amino}-N-(1-naphthylmethyl)-5,8,13-trioxo-2,3,6,7,8,9, 10,11,12,13,19,19a-dodecahydro-1H,5H-pyrrolo[2,1-c] [1,4,7,12]benzoxatriazacyclo-pentadecine-11-carboxamide]
- TCF/LEF receptor gene activity [% inhibition at 10 μM] ([1]; 10 μM): 100%

- inhibition at 10 µM (Purinoreceptor P2Y1): 57%
SMILES: CN1CC(=O)N2C[C@H](NC(=O)OC(C)(C)C)C[C@H]2CSc2cccc(c2)C(=O)N(C)[C@H](C(=O)NCc2ccc3ccccc3c2)CCC1=O [Ex. 316, tert-butyl N-[(4S,6R,15S)-11,16-dimethyl-15-{[(2-naphthylmethyl)amino]carbonyl}-9,12,17-trioxo-2-thia-8,11,16-triazatricyclo[16.3.1.0^4,8]docosa-1(22),18,20-trien-6-yl]carbamate]

- pIC50 ([1]; Homo sapiens, SW480): 5.24
- pIC50 [2, 3]: < 4.30
SMILES: CN1CC(=O)N2C[C@@H](NC(=O)c3cccc4ccccc34)C[C@H]2COc2ccc(F)cc2C(=O)N(C)[C@H](C(=O)NCc2ccc3ccccc3c2)CCC1=O [Ex. 503, (2S,11S,19aS)-15-fluoro-7,12-dimethyl-2-(1-naphthoylamino)-N-(2-naphthylmethyl)-5,8,13-trioxo-2,3,6,7,8,9,10,11,12,13,19,19a-dodecahydro-1H,5H-pyrrolo[2,1-c] [1,4,7,12]benzoxatriazacyclopentadecine-11-carboxamide]
- inhibition at 10 µM ([1]; Homo sapiens, SW480): 68%

- pIC50 ([1]; Homo sapiens, SW480): 5.26
- pIC50 [2, 3]: < 4.30
SMILES: CN1CC(=O)N2C[C@@H](NC(=O)c3cccc(Cl)c3)C[C@H]2COc2ccc(F)cc2C(=O)N(C)[C@H](C(=O)NCc2cccc3ccccc23)CCC1=O [Ex. 502, (2S,11S,19aS)-2-[(3-chlorobenzoyl)amino]-15-fluoro-7,12-dimethyl-N-(1-naphthylmethyl)-5,8,13-trioxo-2,3,6,7,8,9,10,11,12,13,19,19a-dodecahydro-1H,5H-pyrrolo[2,1-c] [1,4,7,12] benzoxatriazacyclopentadecine-11-carboxamide]
- inhibition at 10 µM ([1]; Homo sapiens, SW480): 82%

- pIC50 (Purinoreceptor P2Y1): 5.12
- inhibition at 10 µM (Purinoreceptor P2Y1): 45%
SMILES: CN1CC(=O)N2C[C@H](NC(=O)CCc3ccncc3)C[C@H]2CSc2cccc(c2)C(=O)N(C)[C@H](C(=O)NCc2ccc3ccccc3c2)CCC1=O [Ex. 321, (4S,6R,15S)-11,16-dimethyl-N-(2-naphthylmethyl)-9,12,17-trioxo-6-{[3-(4-pyridinyl)propanoyl]amino}-2-thia-8,11,16-triazatricyclo[16.3.1.0^4,8]docosa-1(22),18,20-triene-15-carboxamide]

- inhibition at 10 µM (Purinoreceptor P2Y1): 60%
SMILES: CCCCC(=O)N[C@@H]1C[C@H]2CSc3cccc(c3)C(=O)N(C)[C@H](C(=O)NCc3ccc4ccccc4c3)CCC(=O)N(C)CC(=O)N2C1 [Ex. 322, (4S,6R,15S)-11,16-dimethyl-N-(2-naphthylmethyl)-9,12,17-trioxo-6-(pentanoylamino)-2-thia-8,11,16-triazatricyclo[16.3.1.0^4,8]docosa-1(22),18,20-triene-15-carboxamide]

— patent publication US9512139B2, “Conformationally constrained, fully synthetic macrocyclic compounds” (POLYPHOR AG, priority 2009, dated 2016)
